From patent US9375438B2, “Inhibitors of NCCa-ATP channels for therapy” (University of Maryland, Baltimore, priority 2007, dated 2016)
Where two headings read alike, the source gives them in different places.

Columns and labels:
[1] = system: NCCa-ATP channels in bEnd.3 cells; experiment: Perforated-patch whole-cell recording of endothelial cells, Na azide-induced ATP depletion; format: cell-based, murine; settings: 1 μM glibenclamide; endothelial cells exposed to hypoxic conditions
Description: Patch clamp of endothelial cells was performed using a nystatin-perforated patch technique, to maintain the metabolic integrity of the cells. The identity of the activated channel can be assessed by measurement of the “reversal potential”, the potential at which an ion channel current reverses from inward to outward. With physiologically relevant concentrations of ions intracellularly and extracellularly (high potassium inside, high sodium outside), the reversal potential can unambiguously distinguish between a K^+ channel current such as KATP, which reverses negative to −50 mV and a non-selective cation channel current such as NCCa-ATP, which reverses near 0 mV.
Cell culture. Endothelial cell cultures from human brain microvessels, human aorta (ScienCell Research Laboratories), and murine brain microvessels (bEnd.3; ATCC), were grown at low density using media and supplements recommended by suppliers.

[2] = system: rats with hemi-cervical spinal cord contusion (SCI); experiment: SCI model: extravasated blood in cord (tissue blood); format: in vivo, rat
Description: (§1) SCI injury model. This study was performed in accordance with the guidelines of the Institutional Animal Care and Use Committee. Adult female Long-Evans rats (275-350 gm) were anesthetized (Ketamine, 60 mg/kg plus Xylazine, 7.5 mg/kg, i.p.). The dura at C4-5 was exposed via a left hemilaminectomy. A hemi-cervical spinal cord contusion was created using a blunt force impactor (1.3-mm impactor head driven by a 10 gm weight dropped vertically 25 mm) (Soblosky et al., 2001; Gensel et al., 2006). After SCI, animals were given 10 ml of glucose-free normal saline s.q. Rectal temperature was maintained at ˜37° C. using a servo-controlled warming blanket.
For in vivo gene suppression of SUR1, we used oligodeoxynucleotides that were phosphorothioated at 4 distal bonds to protect against endogenous nucleases (35).
Tissue blood. Rats were sacrificed at various times after SCI (n=5-11 rats/group), were perfused with heparinized saline to remove intravascular blood, and 5-mm segments of cord encompassing the lesion were homogenized and processed as described (Choudhri et al., 1997).

[3] = system: rats with hemi-cervical spinal cord contusion (SCI); experiment: SCI model: vimentin immunolabeling of capillaries; format: in vivo, rat; settings: region of injury; glibenclamide 200 ng/h s.q. vs controls
Description: as §1, with “blanket. Blood gases and serum glucose 10-15 min post-SCI were: pO2, 95±6 mm Hg; pCO2, 46±3 mm Hg; pH, 7.33±0.01; glucose 258±17 mg/dl in controls and pO2, 96±7 mm Hg; pCO2, 45±2 mm Hg; pH, 7.37±0.01; glucose 242±14 mg/dl in glibenclamide-treated animals.” for “blanket.”
(§2) Drug delivery. […] During the course of the project, slightly different formulations of drug were used, with the best results obtained using stock solutions made by placing 50 mg (or 25 mg) of drug into 10 ml DMSO, and infusion solutions made by placing 400 μl (or 800 μl) stock into 4.6 ml (or 4.2 ml) unbuffered saline (0.9% NaCl) and adjusting the pH to ˜8.5 using 0.1 N NaOH.
Immunohistochemistry. […] Quantitative immunofluorescence was performed as described (Gerzanich et al., 2003).

[4] = system: rats with hemi-cervical spinal cord contusion (SCI); experiment: SCI model: lesion size; format: in vivo, rat
Description: as §1, with “blanket. Blood gases and serum glucose 10-15 min post-SCI were: pO2, 95±6 mm Hg; pCO2, 46±3 mm Hg; pH, 7.33±0.01; glucose 258±17 mg/dl in controls and pO2, 96±7 mm Hg; pCO2, 45±2 mm Hg; pH, 7.37±0.01; glucose 242±14 mg/dl in glibenclamide-treated animals.” for “blanket.”
as §2
Lesion size. At 7 d post-SCI, cords were paraffin sectioned and stained with H&E. Lesion volumes were calculated from lesion areas measured on serial sections every 250 μm.
Immunohistochemistry. Cryosections were immunolabeled (Chen et al., 2003; Simard et al., 2006) using primary antibodies directed against SUR1 (Santa Cruz, C-16; 1:200; 1 h at RT, 48 h at 4° C.), SUR2 (Santa Cruz, H-80; 1:200; 1 h at RT, 48 h at 4° C.), GFAP (Sigma, C-9205; 1:500), and vimentin (Sigma, monoclonal CY3 conjugated; 1:100). Quantitative immunofluorescence was performed as described (Gerzanich et al., 2003).

[5] = system: uninjured rats; experiment: Tail tip bleeding time; format: in vivo, rat; settings: for bleeding time (effect): uninjured rats infused with glibenclamide vs vehicle
Description: Bleeding times were measured using tail tip bleeding as described (Lorrain et al., 2003).

[6] = system: rats with percussion-TBI; experiment: Percussion-TBI model: lesion size and hippocampal neurons (Nissl sections); format: in vivo, rat; settings: 7 days post-TBI
Source text: (§3) Young adult male Long-Evans rats, 240-280 gm, were studied. Rats were anesthetized (Ketamine and Xylazine) and physiological parameters including temperature and blood gases were maintained within appropriate physiological ranges. With the head fixed in a stereotaxic frame, a 6-mm circular craniectomy was created abutting the sagittal and lambdoidal sutures. A posterior location was chosen to emphasize damage to underlying hippocampus (Vink et al., 2001; Floyd et al., 2002). […] Sham controls underwent craniectomy without percussion.

[7] = system: rats with percussion-TBI; experiment: Percussion-TBI model: spontaneous forelimb use and spontaneous vertical exploration; format: in vivo, rat
Source text: as §3
Spontaneous forelimb use (SFU) was quantified and spontaneous vertical exploration (SVE) was quantified during 7 days post-TBI. SFU measures sensorimotor asymmetry (Schallert et al., 2000) whereas SVE measures not only vestibulomotor function but also time spent in exploratory activity.

[8] = Effect of glibenclamide doses on serum glucose; format: in vivo, rat; settings: uninjured rats and rats with stroke and SCI; dose1-dose4
[9] = Long-Evans, rat, in vivo
[10] = system: rats with hemi-cervical spinal cord contusion (SCI); settings: following SCI (Simard et al., 2007); cited from earlier work
[11] = system: rodent models of ischemic stroke; settings: model of malignant cerebral edema; cited from earlier work
[12] = system: cells expressing SUR1-regulated NCCa-ATP channel; settings: cited from earlier work

With COc1ccc(Cl)cc1C(=O)NCCc1ccc(S(=O)(=O)NC(=O)NC2CCCCC2)cc1 [glibenclamide] the “block of Na azide-induced ohmic current” value [1] was “blocked”, the “hemorrhage in cords (visual)” value ([2]; 24 h post-SCI, glibenclamide 200 ng/h s.q. vs vehicle) was “visibly less hemorrhage” and the “extravasated blood in tissue homogenates” value ([2]; during the 24 h after injury, glibenclamide 200 ng/h s.q. vs vehicle) was “little increase”. For the same compound, the PHN ([2]; following SCI (summary)) was “significantly reduced”, the “appearance of vimentin(+) capillaries” value [3] was “elongated and appeared more normal” and the “lesions, gliosis and myelin (GFAP and myelin labeling)” value ([4]; 24 h post-SCI, vs controls) was “smaller lesions, less reactive gliosis and better myelin preservation”. For the same compound, the “lesions on hematoxylin and eosin cross sections” value ([4]; 7 d post-SCI, vs controls) was “smaller lesions”, the “reduction in lesion volume” value ([4]; following SCI, compared to controls (summary)) was 3 fold and the “bleeding time (effect)” value [5] was “no effect”. For the same compound, the “bleeding time (effect)” value ([5]; listed as Glibenclamide) was “did not affect”, the tail bleeding time ([5]; uninjured rats, same dose (200 ng/hr), n=3-5) was 21.5 ± 3.1 s and the “lesion area on coronal sections at the epicenter of injury” value ([6]; 10 rats/group) was 4.4±0.8 mm^2. For the same compound, the “hippocampus on Nissl stained sections” value ([6]; vs vehicle) was “sparing of hippocampus”, the “spontaneous vertical exploration (SVE)” value ([7]; 1, 2 and 7 days post-TBI, vs vehicle controls) was “significantly greater” and the “spontaneous use of the forelimb contralateral to the injury” value ([7]; 2 days post-TBI) was 16.5±3.4%. For the same compound, the “effect of proposed doses on serum glucose” value [8] was “only the highest are hypoglycemogenic, but only mildly so”, the “time required to achieve 90% steady-state serum drug levels” value [9] was 3 h and the “reduction in lesion volume” value [10] was 3 fold. The mortality [11] was “by half” and the “oncotic (necrotic) cell death on ATP depletion” value [12] was “can be blocked”.
